# Data as given in US20260182575A1, “MOLECULES HAVING PESTICIDAL UTILITY AND INTERMEDIATES AND PROCESSES RELATED THERETO” (CORTEVA AGRISCIENCE LLC, priority 2022, published 2026).
# Experiments:
# Assay type in all cases: in vivo
# [1] = tested on: Fall Armyworm (Spodoptera frugiperda, LAPHFR, FAW); experiment: Bioassay 4: fall armyworm, artificial diet, 128-cell tray; conditions: AI alone
# Procedure, shortened: (§1)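 Test solutions (0.0000004–0.04% w/v, i.e. 0.00005–5 μg/cm² on diet) were pipetted onto artificial lepidopteran diet and one 2nd-instar larva was placed per cell, 8 replicates per species, held at ~26° C. Live larvae were counted after 5 days; percent control used Abbott's correction against a solvent check.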
# [2] = tested on: Soybean Looper (Chrysodeixis includens, PSEPIN, SBL); experiment: Bioassay 4: soybean looper, artificial diet, 128-cell tray; conditions: AI alone
# Procedure, shortened: as §1
# [3] = tested on: Sweet Potato Whitefly (Bemisia tabaci, BEMITA, SPW); experiment: Bioassay 2: sweet potato whitefly, cotton seedling foliar spray; conditions: AI alone
# Protocol: Stock solutions were prepared with F1 as well as for each of the active ingredients individually. Test solutions were prepared from the stock solutions. Test solutions were prepared containing F1, the individual active ingredients, and mixtures of F1 with each of the active ingredients. The test solutions for F1 and the individual active ingredients were prepared by adding 500 μL of stock solution to a 25 mL glass vial, then adding 500 μL of acetone, followed by the addition of 9 mL water with 0.025% Tween® 20 to create a 0.001% (w/v) solution. The test solutions containing mixtures of F1, and the individual active ingredients were prepared by adding 500 μL of the active ingredient stock solution to a 25 mL glass vial, followed by 500 μL of the F1 stock solution, then by the addition of 9 mL water with 0.025% Tween® 20 to create a test solution containing 0.001% (w/v) F1 and 0.001% (w/v) of the active ingredient. Each test solution was serially diluted to create desired doses of test solutions (0.001% (w/v), 0.0001% (w/v), 0.00001% (w/v), 0.000001% (w/v), 0.0000001% (w/v), and 0.00000001% (w/v)).
# The test solutions were tested against SPW using the following procedure: Cotton seedlings grown in 3-inch pots, pruned so that only one true leaf remained, were used as test substrate. Adult B. tabaci were allowed to colonize the cotton plants and lay eggs for 24 hours after which all adults were removed from the plants using compressed air. Plants were monitored for egg development, and when crawler emergence was underway (>25% emergence based on visual examination using a microscope), the plants were sprayed using the test solutions and methods described above for green peach aphids (GPA). Treated plants were held in a holding room at approximately 25° C. and ambient relative humidity (RH) prior to grading. Evaluation was conducted by counting the number of developed 2-3 instar nymphs per plant under a microscope 7-9 days after treatment. Percent control was measured using Abbott's correction formula (W. S. Abbott, J. Econ. Entomol. 18 (1925), pp. 265-267) as follows:
# where X=No. of live nymphs on solvent check plants and Y=No. of live nymphs on treated plants. In Table B2 the “Expected % Control” was calculated using the method described in Colby S. R., Weeds, 1967, 15, 20-22. Bioassay 3: Western Flower Thrips (Frankliniella occidentalis, FRANOC, “WFT”).
# [4] = tested on: Corn Earworm (Helicoverpa zea, HELIZE, CEW); experiment: Bioassay 4: corn earworm, artificial diet, 128-cell tray; conditions: AI alone
# Procedure, shortened: as §1
# [5] = tested on: Green Peach Aphid (Myzus persicae, MYZUPE, GPA); experiment: Bioassay 1: green peach aphid, cabbage seedling foliar spray; conditions: AI alone at the rate of Wt Ratio F1:AI 1:40000 (F1 0.04), 3 days
# Protocol: Bioassay 1: Green Peach Aphid (Myzus persicae, MYZUPE, “GPA”).
# Stock solutions of F1 and various active ingredients were prepared initially at a concentration of 4 milligrams per milliliter (mg/mL) for F1 and 0.1 mg/mL for the active ingredients, respectively, using a 1:1 mixture of acetone:methanol as a diluent. Stock solutions were prepared with F1 as well as for each of the active ingredients individually. Test solutions were prepared from the stock solutions. Test solutions were prepared containing F1, the individual active ingredients, and mixtures of F1 with each of the active ingredients. The test solutions for F1 and the individual active ingredients were prepared by adding 750 microliters (μL) of stock solution to a 25 mL glass vial, then adding 750 μL of 1:1 acetone:methanol solvent, followed by the addition of 13.5 mL water with 0.025% Tween® 20 to create a 0.0005% (weight/volume (w/v)) solution. The test solutions containing mixtures of F1, and the individual active ingredients were prepared by adding 750 μL of the active ingredient stock solution to a 25 mL glass vial, followed by 750 μL of the F1 stock solution, then by the addition of 13.5 mL water with 0.025% Tween® 20 to create a test solution containing 0.0005% (w/v) F1 and 0.0005% (w/v) of the active ingredient. Each test solution was serially diluted to create desired doses of test solutions (0.0005% (w/v), 0.000125% (w/v), 0.00003125% (w/v), 0.0000078% (w/v), 0.00000195% (w/v), and 0.0000005% (w/v)). In test solutions containing mixtures of F1 and the active ingredients, the active ingredients were diluted as described above, but the concentration of F1 was held constant (0.04% (w/v)).
# The test solutions were tested against GPA using the following procedure: cabbage seedlings, grown in 3-inch pots with 2-3 small (3-5 centimeter (cm)) true leaves, were used as test substrate. The seedlings were infested with 20-50 GPA (wingless adult and nymph stages) one day prior to chemical application. Four pots with individual seedlings were used for each treatment. A hand-held aspirator-type sprayer was used for spraying a solution to both sides of […] leaves until runoff. Reference plants (solvent check) were sprayed with the diluent only (0.025% Tween® 20 and 10% acetone:methanol (1:1) in water). Treated plants were held in a holding room for three days at approximately 25° C. and ambient relative humidity (RH about 20% to about 45%) prior to grading. Evaluation was conducted by counting the number of live aphids per plant under a microscope three days after treatment. Percent control was measured using Abbott's correction formula (W. S. Abbott, J. Econ. Entomol. 18 (1925), pp. 265-267) as follows:
# where X=No. of live aphids on solvent check plants and Y=No. of live aphids on treated plants. In Table B1 the “Expected % Control” was calculated using the method described in Colby S. R., Weeds, 1967, 15, 20-22. Bioassay 2: Sweet Potato Whitefly (Bemisia tabaci, BEMITA, “SPW”).
# [6] = tested on: Western Corn Rootworm (Diabrotica virgifera virgifera, DIABVI, WCR); experiment: Bioassay 8: western corn rootworm, soil drench, corn root protection; conditions: AI alone, DIABVI, soil drench, 13 days
# Protocol: Corn seeds were planted in steam pasteurized soil filled greenhouse pots. Western corn rootworm Diabrotica virgifera virgifera eggs supplied from the Corteva Agriscience in Johnston, IA US, were suspended in a 0.08% agar solution added into the soil. Stock solutions of F1 and active ingredients were prepared at a concentration of either 250 or 500 ugai/10 mL for F1 and active ingredients at the ratios of (F1:AI) 1:0.004; 1:0.01; 1:0.02; 1:0.04; 1:0.08; 1:0.1; 1:0.15; 1:0.2; 1:0.4; 1:2; or 1:4, using a 1:1 solution of acetone:water as a diluent. A soil application of solutions were applied as a 10 mL drench over the soil. Plants were grown in the greenhouse for 13 days at 25 C after which the roots were removed from the soil, washed, and measured to determine the length of the median nodal roots. The measured lengths were compared to the infested and un-infested untreated checks to determine the mean percent control offered to protect the corn roots.
# [7] = tested on: Western Flower Thrips (Frankliniella occidentalis, FRANOC, WFT); experiment: Bioassay 3: western flower thrips, cotton leaf disc dip; conditions: 3 days
# Protocol: Stock solutions of F1 and various active ingredients were prepared initially at a concentration of 0.1 mg/mL using acetone as a diluent. Stock solutions were prepared with F1 as well as for each of the active ingredients individually. Test solutions were prepared from the stock solutions. Test solutions were prepared containing F1, the individual active ingredients, and mixtures of F1 with each of the active ingredients. The test solutions for F1 and the individual active ingredients were prepared by adding 500 μL of stock solution to a 25 mL glass vial, then adding 500 μL of acetone, followed by the addition of 9 mL water with 0.025% Tween® 20 to create a 0.0005% (w/v) solution. The test solutions containing mixtures of F1, and the individual active ingredients were prepared by adding 500 μL of the active ingredient stock solution to a 25 mL glass vial, followed by 500 μL of the F1 stock solution, then by the addition of 9 mL water with 0.025% Tween® 20 to create a test solution containing 0.0005% (w/v) F1 and 0.0005% (w/v) of the active ingredient. Each test solution was serially diluted to create desired doses of test solutions (0.0005% (w/v), 0.000125% (w/v), 0.00003125% (w/v), 0.0000078% (w/v), and 0.00000195% (w/v)).
# The test solutions were tested against WFT using the following procedure: Leaf discs (2.7 cm in diameter) were cut from the true leaves of cotton plants. Leaf discs were dipped into the test solutions and shaken to ensure complete coverage of the leaf disc and then placed in Millipore® PetriSlides containing a filter paper disc. Treated leaf discs were air dried for approximately 1 hour. Each leaf disc was infested with 5 WFT (9-10-day old nymphs) by placement on each leaf disc, and the PetriSlides were capped to prevent escape. Each treatment was replicated three times and the test treatments were held at approximately 26° C. and ambient relative humidity (RH) prior to grading. Reference discs (solvent check) were treated with the diluent only. Evaluation was conducted by counting the number of live WFT under magnification 3 days after treatment. Percent control was measured using Abbott's correction formula (W. S. Abbott, J. Econ. Entomol. 18 (1925), pp. 265-267) as follows:
# where X=No. of live nymphs on solvent check leaf discs and Y=No. of live nymphs on treated leaf discs. In Table B3 the “Expected % Control” was calculated using the method described in Colby S. R., Weeds, 1967, 15, 20-22. Bioassay 4: Corn Earworm (Helicoverpa zea, HELIZE, “CEW”), Fall Armyworm (Spodoptera frugiperda, LAPHFR, “FAW”), and Soybean Looper (Chrysodeixis includens, PSEPIN, “SBL”).
# [8] = tested on: Corn Earworm (Helicoverpa zea, HELIZE, CEW); experiment: Bioassay 7: corn earworm, artificial diet, 96 well plate; conditions: AI alone at 0.4 wt %
# Protocol: (§2) The test solutions were tested against CEW, FAW, BAW, and SBL using the following procedure: an artificial lepidopteran diet (Multispecies Lepidopteran Diet, Southland Products) was distributed in 96 well plate. Twenty μL of test solution was pipetted onto a cell in the bioassay plate. […] Each treatment was replicated 5 times for each species. Approximately five first instar CEW, FAW, BAW, or SBL larva were placed on top of the diet in each cell and was contained with a clear perforated adhesive lid. Test trays were held at approximately 25° C. and ambient relative humidity prior to grading. After five days, the number of cells where all the larvae were dead were recorded as 100% and averaged across all replicates; then the percent control was measured using Abbott's correction formula (W. S. Abbott, J. Econ. Entomol. 18 (1925), pp. 265-267) as follows:
# (§3) where X=No. of live larvae on solvent check and Y=No. of live larvae on treated diet. In Table 7 the “Expected % Control” was calculated using the method described in Colby S. R., Weeds, 1967, 15, 20-22. Bioassay 8: Western Corn Rootworm (Diabrotica virgifera virgifera, DIABVI, “WCR”)
# [9] = tested on: Beet Armyworm (Spodoptera exigua, LAPHEG, BAW); experiment: Bioassay 7: beet armyworm, artificial diet, 96 well plate; conditions: AI alone at 0.4 wt %
# Protocol: as §2, §3
structure (smiles),measurement,setting,value
CNC(=O)c1cc(Cl)cc(C)c1NC(=O)c1cc(Br)nn1-c1ncccc1Cl [Chlorantraniliprole],Average % Control AI,[1]; 0.000004 wt %,62.5%
same,Average % Control AI,[2]; 0.000004 wt %,37.5%
same,Average % Control AI,"[3]; Wt % AI 0.0001, 7-9 days",28.0%
same,Average % Control AI,[4]; 0.000004 wt %,0.0%
same,Average % Control AI,[4]; 0.00004 wt %,0.0%
same,Average % Control AI,[5],8.1%
CN/C(=N\[N+](=O)[O-])NCc1cnc(Cl)s1 [Clothianidin],Average % Control AI,[6]; UgActive AI 1,14.8%
N#Cc1nn(-c2c(Cl)cc(C(F)(F)F)cc2Cl)c(N)c1[S+]([O-])C(F)(F)F (stereo not shown) [Fipronil],Average % Control AI,[1]; 0.000004 wt %,0.0%
same,Average % Control AI,[1]; 0.00004 wt %,0.0%
same,Average % Control AI,[2]; 0.000004 wt %,0.0%
same,Average % Control AI,[2]; 0.00004 wt %,0.0%
same,Average % Control AI,"[3]; Wt % AI 0.0001, 7-9 days",8.9%
same,Average % Control AI,[4]; 0.000004 wt %,0.0%
same,Average % Control AI,[4]; 0.00004 wt %,0.0%
same,Average % Control AI,[7]; AI alone at 1:1 rate to F1 0.195 (10^-6 Wt %),9.5%
same,Average % Control AI,[7]; AI alone at 1:1 rate to F1 3.125 (10^-6 Wt %),42.9%
CO/N=C(/C1=NOCCO1)c1ccccc1Oc1ncnc(Oc2ccccc2Cl)c1F [Fluoxastrobin],Average % Control AI,[6]; UgActive AI 1,0.0%
OC(Cc1ccccc1Cl)(Cn1nc[nH]c1=S)C1(Cl)CC1 (stereo not shown) [Prothioconazole],Average % Control AI,[6]; UgActive AI 20,0.0%
same,Average % Control AI,[8],0.0%
CC1(C)CCC(=Cc2ccc(Cl)cc2)C1(O)Cn1cncn1 (stereo not shown) [Titriconazole],Average % Control AI,[6]; UgActive AI 100,0.0%
same,Average % Control AI,[8],0.0%
same,Average % Control AI,[9],0.0%
O=c1c(-c2cccc(C(F)(F)F)c2)c([O-])[n+](Cc2cncnc2)c2ccccn12 [Triflumezopyrim],Average % Control AI,[1]; 0.000004 wt %,0.0%
same,Average % Control AI,[2]; 0.000004 wt %,12.5%
same,Average % Control AI,"[3]; Wt % AI 0.000001, 7-9 days",10.1%
same,Average % Control AI,"[3]; Wt % AI 0.00001, 7-9 days",31.4%
same,Average % Control AI,[4]; 0.000004 wt %,0.0%
same,Average % Control AI,[4]; 0.00004 wt %,0.0%
